For two compounds, EC50 results are on record in patent publication US10947289B2, “Glyco-modified atrial natriuretic peptide” (priority 2013, dated 2021).

This test addresses T1, human GC-A (Homo sapiens, UniProt P16066).
T1 construct: expressed in transfected cells; host or cells: CHO cells
T1 sequence (P16066 33-1061): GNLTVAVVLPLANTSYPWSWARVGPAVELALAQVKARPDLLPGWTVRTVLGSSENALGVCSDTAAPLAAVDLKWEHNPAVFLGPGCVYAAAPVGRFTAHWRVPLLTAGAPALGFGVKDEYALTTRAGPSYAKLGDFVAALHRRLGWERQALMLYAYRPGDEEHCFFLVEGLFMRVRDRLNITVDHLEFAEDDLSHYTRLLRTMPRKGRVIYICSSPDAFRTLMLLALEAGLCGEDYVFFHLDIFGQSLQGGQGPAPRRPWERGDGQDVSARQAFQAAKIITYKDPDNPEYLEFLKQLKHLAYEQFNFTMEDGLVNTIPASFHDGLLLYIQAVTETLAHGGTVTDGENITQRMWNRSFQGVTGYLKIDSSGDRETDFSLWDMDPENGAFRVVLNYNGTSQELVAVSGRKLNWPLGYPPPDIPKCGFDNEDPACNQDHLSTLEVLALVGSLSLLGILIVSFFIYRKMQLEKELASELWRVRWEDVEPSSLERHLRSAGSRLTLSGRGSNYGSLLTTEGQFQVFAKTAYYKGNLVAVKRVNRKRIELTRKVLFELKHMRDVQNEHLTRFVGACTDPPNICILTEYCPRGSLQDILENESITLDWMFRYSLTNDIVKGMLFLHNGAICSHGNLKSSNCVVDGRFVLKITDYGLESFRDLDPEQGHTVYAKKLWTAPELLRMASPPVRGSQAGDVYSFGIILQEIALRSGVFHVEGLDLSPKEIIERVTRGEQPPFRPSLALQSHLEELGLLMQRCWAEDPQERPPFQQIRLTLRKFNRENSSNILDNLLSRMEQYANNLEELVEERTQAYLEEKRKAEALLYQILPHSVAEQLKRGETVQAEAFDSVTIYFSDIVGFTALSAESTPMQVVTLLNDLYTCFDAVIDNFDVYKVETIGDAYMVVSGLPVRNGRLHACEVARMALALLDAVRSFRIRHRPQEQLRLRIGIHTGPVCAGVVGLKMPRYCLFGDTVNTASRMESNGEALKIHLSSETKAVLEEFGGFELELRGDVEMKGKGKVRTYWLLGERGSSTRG
As to the kind of experiment: cGMP elevating activity in CHO/human GC-A cells (Test Example 1). Format: cell-based. Here is the method: The cGMP elevating activity of each modified peptide prepared in Example 2 was measured by the following method:
CHO/human GC-A cells, which are CHO cells constitutively expressing human GC-A, were suspended at 2×10^5 cells/ml in α-MEM, 10% FBS, and 1% penicillin-streptomycin, inoculated at 20 μl/well (4×10^3 cells/well) onto a 384-well plate (Corning, 3826), and cultured overnight in a CO2 incubator. On the next day, the medium was removed from this plate, and then, 1.6 mM IBMX/KRB buffer was added thereto at 10 μl/well. The mixture was stirred on a plate shaker and then incubated at room temperature for 10 minutes. […] The mixture was stirred on a plate shaker and then incubated for 15 minutes in a CO2 incubator. Thereafter, a lysis buffer (50 mM phosphate buffer, pH 7.0, and 1% Triton X-100) was added thereto at 5 μl/well. The cells were lysed by stirring for 10 minutes on a plate shaker. Subsequently, the cGMP levels in the cell lysates were measured by use of a cGMP kit (manufactured by Cisbio Bioassays). Specifically, to a 384-well plate (Greiner, 784076), 5 μl/well of a diluent attached to the kit, 5 μl/well of the cell lysate, 5 μl/well of cGMP-d2, and 5 μl/well of anti cGMP-Cryptate were added. The mixture was stirred on a plate shaker and then incubated overnight at 4° C. in the dark, followed by the measurement of homogeneous time-resolved fluorescence using RubyStar (manufactured by BMG LABTECH JAPAN Ltd.). The activity value (T/C) of the test substance at each concentration was calculated when the activity value of a well supplemented with only a solvent was defined as 0 and the activity value of a well supplemented with 1 nM ANP was defined as 1.

One may read the EC50 as the midpoint of the concentration-response curve. Low values mean a more potent agent, high ones a less potent agent. `CC[C@H](C)[C@@H]1NC(=O)[C@H](CCCNC(=N)N)NC(=O)[C@H](CC(=O)O)NC(=O)[C@H](CCSC)NC(=O)[C@H](CCCNC(=N)N)NC(=O)CNC(=O)CNC(=O)[C@H](Cc2ccccc2)NC(=O)[C@@H](NC(=O)[C@H](CO)NC(=O)[C@H](CO)NC(=O)[C@H](CCCNC(=N)N)NC(=O)[C@H](CCCNC(=N)N)NC(=O)[C@H](CC(C)C)NC(=O)[C@H](CO)NC(=O)CCOCCOCCOCCOCCNC(=O)CCSC2CC(=O)N(CCC(=O)N[C@@H](CCC(=O)NCCO[C@@H]3O[C@H](CO)[C@@H](O[C@@H]4O[C@H](CO)[C@@H](O[C@@H]5O[C@H](CO[C@H]6O[C@H](CO)[C@@H](O)[C@H](O)[C@@H]6O[C@@H]6O[C@H](CO)[C@@H](O[C@@H]7O[C@H](CO[C@]8(C(=O)O)C[C@H](O)[C@@H](NC(C)=O)[C@H]([C@H](O)[C@H](O)CO)O8)[C@H](O)[C@H](O)[C@H]7O)[C@H](O)[C@H]6NC(C)=O)[C@@H](O)[C@H](O[C@H]6O[C@H](CO)[C@@H](O)[C@H](O)[C@@H]6O[C@@H]6O[C@H](CO)[C@@H](O[C@@H]7O[C@H](CO[C@]8(C(=O)O)C[C@H](O)[C@@H](NC(C)=O)[C@H]([C@H](O)[C@H](O)CO)O8)[C@H](O)[C@H](O)[C@H]7O)[C@H](O)[C@H]6NC(C)=O)[C@@H]5O)[C@H](O)[C@H]4NC(C)=O)[C@H](O)[C@H]3NC(C)=O)C(=O)NCCO[C@@H]3O[C@H](CO)[C@@H](O[C@@H]4O[C@H](CO)[C@@H](O[C@@H]5O[C@H](CO[C@H]6O[C@H](CO)[C@@H](O)[C@H](O)[C@@H]6O[C@@H]6O[C@H](CO)[C@@H](O[C@@H]7O[C@H](CO[C@]8(C(=O)O)C[C@H](O)[C@@H](NC(C)=O)[C@H]([C@H](O)[C@H](O)CO)O8)[C@H](O)[C@H](O)[C@H]7O)[C@H](O)[C@H]6NC(C)=O)[C@@H](O)[C@H](O[C@H]6O[C@H](CO)[C@@H](O)[C@H](O)[C@@H]6O[C@@H]6O[C@H](CO)[C@@H](O[C@@H]7O[C@H](CO[C@]8(C(=O)O)C[C@H](O)[C@@H](NC(C)=O)[C@H]([C@H](O)[C@H](O)CO)O8)[C@H](O)[C@H](O)[C@H]7O)[C@H](O)[C@H]6NC(C)=O)[C@@H]5O)[C@H](O)[C@H]4NC(C)=O)[C@H](O)[C@H]3NC(C)=O)C2=O)CSSC[C@@H](C(=O)N[C@@H](CC(N)=O)C(=O)N[C@@H](CO)C(=O)N[C@@H](Cc2ccccc2)C(=O)N[C@@H](CCCNC(=N)N)C(=O)N[C@@H](Cc2ccc(O)cc2)C(=O)O)NC(=O)CNC(=O)[C@H](CC(C)C)NC(=O)CNC(=O)[C@H](CO)NC(=O)[C@H](CCC(N)=O)NC(=O)[C@H](C)NC(=O)CNC1=O` (some centres unmarked) [Compound 2-31, SG-(SG-)Gln*-Mal-PEG(3)-hANP(1-28)] came in with an EC50 of 0.31 nM.

Turning to `CC[C@H](C)[C@@H]1NC(=O)[C@H](CCCNC(=N)N)NC(=O)[C@H](CC(=O)O)NC(=O)[C@H](CCSC)NC(=O)[C@H](CCCNC(=N)N)NC(=O)CNC(=O)CNC(=O)[C@H](Cc2ccccc2)NC(=O)[C@@H](NC(=O)[C@H](CO)NC(=O)[C@H](CO)NC(=O)[C@H](CCCNC(=N)N)NC(=O)[C@H](CCCNC(=N)N)NC(=O)[C@H](CC(C)C)NC(=O)[C@H](CO)NC(=O)CCSC2CC(=O)N(CCC(=O)NCCOCCOCCOCCOCCC(=O)N[C@@H](CCC(=O)NCCO[C@@H]3O[C@H](CO)[C@@H](O[C@@H]4O[C@H](CO)[C@@H](O[C@@H]5O[C@H](CO[C@H]6O[C@H](CO)[C@@H](O)[C@H](O)[C@@H]6O[C@@H]6O[C@H](CO)[C@@H](O[C@@H]7O[C@H](CO[C@]8(C(=O)O)C[C@H](O)[C@@H](NC(C)=O)[C@H]([C@H](O)[C@H](O)CO)O8)[C@H](O)[C@H](O)[C@H]7O)[C@H](O)[C@H]6NC(C)=O)[C@@H](O)[C@H](O[C@H]6O[C@H](CO)[C@@H](O)[C@H](O)[C@@H]6O[C@@H]6O[C@H](CO)[C@@H](O[C@@H]7O[C@H](CO[C@]8(C(=O)O)C[C@H](O)[C@@H](NC(C)=O)[C@H]([C@H](O)[C@H](O)CO)O8)[C@H](O)[C@H](O)[C@H]7O)[C@H](O)[C@H]6NC(C)=O)[C@@H]5O)[C@H](O)[C@H]4NC(C)=O)[C@H](O)[C@H]3NC(C)=O)C(=O)NCCO[C@@H]3O[C@H](CO)[C@@H](O[C@@H]4O[C@H](CO)[C@@H](O[C@@H]5O[C@H](CO[C@H]6O[C@H](CO)[C@@H](O)[C@H](O)[C@@H]6O[C@@H]6O[C@H](CO)[C@@H](O[C@@H]7O[C@H](CO[C@]8(C(=O)O)C[C@H](O)[C@@H](NC(C)=O)[C@H]([C@H](O)[C@H](O)CO)O8)[C@H](O)[C@H](O)[C@H]7O)[C@H](O)[C@H]6NC(C)=O)[C@@H](O)[C@H](O[C@H]6O[C@H](CO)[C@@H](O)[C@H](O)[C@@H]6O[C@@H]6O[C@H](CO)[C@@H](O[C@@H]7O[C@H](CO[C@]8(C(=O)O)C[C@H](O)[C@@H](NC(C)=O)[C@H]([C@H](O)[C@H](O)CO)O8)[C@H](O)[C@H](O)[C@H]7O)[C@H](O)[C@H]6NC(C)=O)[C@@H]5O)[C@H](O)[C@H]4NC(C)=O)[C@H](O)[C@H]3NC(C)=O)C2=O)CSSC[C@@H](C(=O)N[C@@H](CC(N)=O)C(=O)N[C@@H](CO)C(=O)N[C@@H](Cc2ccccc2)C(=O)N[C@@H](CCCNC(=N)N)C(=O)N[C@@H](Cc2ccc(O)cc2)C(=O)O)NC(=O)CNC(=O)[C@H](CC(C)C)NC(=O)CNC(=O)[C@H](CO)NC(=O)[C@H](CCC(N)=O)NC(=O)[C@H](C)NC(=O)CNC1=O` (some centres unmarked) [Compound 2-32, SG-(SG-)Gln*-PEG(3)-Mal-hANP(1-28)], it took 0.41 nM to reach a half-maximal effect (EC50).
